Reference: ChEMBL document CHEMBL1134267 (Bioorg Med Chem Lett, 2001)

Key:
[1] = target: Neuronal acetylcholine receptor alpha4/beta2 (Rattus norvegicus); assay: Affinity for Nicotinic acetylcholine receptor alpha4-beta2 tested by analogue-induced inhibition of [3H]NIC binding to rat striatal membranes
[2] = target: Neuronal acetylcholine receptor subunit alpha-7 (Rattus norvegicus, UniProt Q05941); assay: Affinity for alpha-7 neuronal nicotinic acetylcholine receptor subtype determined by inhibition of [3H]-MLA binding to rat brain membranes; assay type: cell membranes, Membrane
Neuronal acetylcholine receptor subunit alpha-7, sequence (Q05941 whole entry): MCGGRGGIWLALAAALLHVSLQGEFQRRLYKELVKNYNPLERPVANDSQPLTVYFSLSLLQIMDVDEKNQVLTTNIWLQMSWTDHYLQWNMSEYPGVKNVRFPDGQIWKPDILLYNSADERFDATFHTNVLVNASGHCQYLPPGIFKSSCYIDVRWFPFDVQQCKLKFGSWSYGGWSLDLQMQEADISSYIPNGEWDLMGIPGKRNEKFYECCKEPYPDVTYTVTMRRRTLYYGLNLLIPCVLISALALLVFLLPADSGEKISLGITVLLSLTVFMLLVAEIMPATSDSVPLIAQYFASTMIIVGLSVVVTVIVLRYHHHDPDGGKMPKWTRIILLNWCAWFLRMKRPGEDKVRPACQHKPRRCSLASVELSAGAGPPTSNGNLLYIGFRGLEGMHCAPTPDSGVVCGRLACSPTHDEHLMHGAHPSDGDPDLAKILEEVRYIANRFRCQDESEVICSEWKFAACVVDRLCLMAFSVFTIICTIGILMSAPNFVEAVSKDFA

SMILES | Ki [1] | Ki [2]
CN1CC[C@@H]2CCc3cc[n+]([BH2-]C#N)cc3[C@@H]21 | 2400 nM | 600 nM
c1cnc2c(c1)[C@H]1NCC[C@H]1CC2 | 10500 nM | > 100000 nM
c1cc2c(cn1)[C@@H]1NCC[C@@H]1CC2 | – | 20200 nM
CN1CC[C@H]2CCc3c(ccc[n+]3[BH2-]C#N)[C@H]21 | – | > 100000 nM
CN1CC[C@H]2CCc3ncccc3[C@H]21 | 12200 nM | > 100000 nM
CN1CCC[C@H]1c1ccc[n+]([BH2-]C#N)c1 | 15200 nM | 41 nM
CN1CC[C@@H]2CCc3ccncc3[C@@H]21 | 400 nM | 590 nM
c1cncc([C@@H]2CCCN2)c1 [NORNICOTINE] | – | 1340 nM
